Results reported in patent publication US12577325B2, “Bispecific antibody-camptothecin drug conjugate and pharmaceutical use thereof” (SYSTIMMUNE, INC., priority 2021, dated 2026).

What was measured:
[1] = tested on: human poorly differentiated lung cancer squamous cell carcinoma cell line Oka-c-1; experiment: In vitro efficacy (Alamar Blue or MTS, 5 days) in Oka-c-1; type: cell-based; settings: 120 h, Oka-c-1, 5 days
Procedure: (§1) The in vitro efficacy of ADC-coupled drugs was evaluated using an experimental model of two human tumor cell lines (human poorly differentiated lung cancer squamous cell carcinoma cell line Oka-c-1, human lung squamous cell carcinoma cells SK-MES-1).
(§2) Inoculate a certain number of tumor cells in a 96-well plate, add the gradient-diluted test antibody and the corresponding ADC drug to the cells, treat for 5 days, measure the cell viability using Alamar Blue or MTS, and evaluate the inhibitory effect of the test antibody, the ADC and the small molecule drug d3 on the tumor cell lines by calculating the IC50. The starting concentration of the antibody drug was 500 nM, and the dilution was 7-fold, totaling 7 concentration points, and the treatment was carried out for 5 days.

[2] = tested on: human lung squamous cell carcinoma cells SK-MES-1; experiment: In vitro efficacy (Alamar Blue or MTS, 5 days) in SK-MES-1; type: cell-based; settings: 120 h, SK-MES-1, 5 days
Procedure: as §1, §2

## CC[C@@]1(O)C(=O)OCc2c1cc1n(c2=O)Cc2c-1nc1cc(F)c(C)c3c1c2[C@@H](NC(=O)[C@H](C)O)CC3 [d3]
[1]
  IC50: 0.846 nM
[2]
  IC50: 2.04 nM
